Here are results for two molecules from article PMC4624780 (PLoS ONE, 2015).

“Also recorded” adds a separate entry of the source. Square brackets hold non-standard residues; d marks the D form. Peptide text beside a SMILES is read from it. Ahx = NCCCCCC(=O)O

This test deals with FMDV 3A protein homodimerization in BHK-21 cells. The test is classed as cell-based, foot-and-mouth disease virus (FMDV).

Turning to RRRRRRRXFFEGMVHDS [Peptide R7-α1], the “3A dimerization (PLA fluorescent dots relative to cells incubated with no peptide)” value is given as “decreasing trend; also recorded: higher inhibitions”.

With `CC[C@H](C)[C@H](NC(=O)[C@H](CC(C)C)NC(=O)[C@@H]1CCCN1C(=O)[C@H](CCCNC(=N)N)NC(=O)[C@H](CC(C)C)NC(=O)[C@H](CCC(=O)O)NC(=O)CCCCCNC(=O)[C@H](CCCNC(=N)N)NC(=O)[C@H](CCCNC(=N)N)NC(=O)[C@H](CCCNC(=N)N)NC(=O)[C@H](CCCNC(=N)N)NC(=O)[C@H](CCCNC(=N)N)NC(=O)[C@H](CCCNC(=N)N)NC(=O)[C@@H](N)CCCNC(=N)N)C(=O)N[C@@H](CCC(N)=O)C(=O)N[C@@H](CCC(N)=O)C(N)=O` [Peptide R7-α2] (H-RRRRRRR[Ahx]ELRPLIQQ-NH2; N-terminus assumed), the “3A dimerization (PLA fluorescent dots relative to cells incubated with no peptide)” value was “lack of effect”.
